The values below come from patent US6251894A, “1-(1,2-disubstituted piperidinyl)-4 (fused imidazole)-piperidine derivatives” (Janssen Pharmaceuticals N.V., priority 1995, dated 2001).

Where two headings read alike, the source gives them in different places.

Experiment [1] deals with Substance P Induced Relaxation of the Pig Coronary Arteries. Put plainly: Antagonism of substance P induced relaxation of the pig coronary arteries. Conditions: 30 min incubation. The method, boiled down: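 Inverted pig coronary artery segments, endothelium outside, in Krebs-Henseleit at 37 °C (95/5 O2/CO2), isometric tension recorded. After prostaglandin F2α (10^-5 M) precontraction, substance P (3×10^-10 M and 10^-9 M cumulative) relaxation repeated after 30 min incubation with test compound.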

In experiment [2] the test system is Substance P Induced Plasma Extravasation. Put plainly: Antagonism of substance P induced plasma extravasation in guinea-pigs. Format: in vivo, guinea-pig. Conditions: Cavia porcellus, 1 hour prior to substance P. The gist of the method: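 Female guinea-pigs; compound or solvent given s.c. or p.o. 1 h before substance P (2 mg/kg, femoral artery) plus Evans Blue (30 mg/kg). Blue colouring of nose, forepaws, conjunctiva scored at 10 min; trachea and urinary bladder at 30 min after CO2 sacrifice. Values are lowest active doses in mg/kg.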

The mark [3] stands for this setting: po, 10 min, p.o., conjunctiva, read-out: lowest active dose (LAD), conjunctiva.
Setting [4] is: po, 10 min, p.o., forepaws, read-out: lowest active dose (LAD), forepaws.
[5] abbreviates: po, 10 min, p.o., nose, read-out: lowest active dose (LAD), nose.
Where [6] appears, read: po, 0.5 h, p.o., trachea, read-out: lowest active dose (LAD), trachea.
Setting [7] is: po, 0.5 h, p.o., urinary bladder, read-out: lowest active dose (LAD), urinary bladder.
[8] abbreviates: test compound concentration 3 × 10^-9 (unit not given).

As for `O=C(c1cc(C(F)(F)F)cc(C(F)(F)F)c1)N1CC[C@@H](N2CCC(C3c4ccccc4Cn4c3nc3ccccc34)CC2)C[C@@H]1Cc1ccccc1` (mixture of isomers) [Compound 15, (±)-trans-1-[3,5-bis(trifluoromethyl)benzoyl]-4-[4-(6,11-dihydrobenzimidazo[1,2-b]isoquinolin-6-yl)-1-piperidinyl]-2-phenylmethyl)piperidine], in experiment [1] (test compound concentration 3 × 10^-8 (unit not given)), the “% inhibition of the response to 10^-9 M substance P” value was 95.4%. Further, the minimal effective dose in experiment [2] (setting [3]), in experiment [2] (setting [4]), in experiment [2] (setting [5]), in experiment [2] (setting [6]) and in experiment [2] (setting [7]) was 10 mg/kg in each case.

As to `O=C1Cn2ccnc2C(=C2CCN([C@@H]3CCN(C(=O)c4cc(C(F)(F)F)cc(C(F)(F)F)c4)[C@@H](Cc4ccccc4)C3)CC2)c2ccsc21` (relative stereo) [Compound 107], the “% inhibition of the response to 10^-9 M substance P” value in experiment [1] (setting [8]) turned out to be 96.3%. Besides, the minimal effective dose in experiment [2] (setting [3]), in experiment [2] (setting [4]), in experiment [2] (setting [5]), in experiment [2] (setting [6]) and in experiment [2] (setting [7]) was 10 mg/kg in each case.

For `O=C(c1cc(C(F)(F)F)cc(C(F)(F)F)c1)N1CC[C@@H](N2CCC(C3c4ccccc4CCn4ccnc43)CC2)C[C@@H]1Cc1ccccc1` (stereo partly drawn) [Compound 8], in experiment [1] (setting [8]), the “% inhibition of the response to 10^-9 M substance P” value was 82.3%. The minimal effective dose in experiment [2] (sc, 10 min, s.c., conjunctiva, read-out: lowest active dose (LAD), conjunctiva) amounted to 10 mg/kg; in experiment [2] (sc, 10 min, s.c., forepaws, read-out: lowest active dose (LAD), forepaws) it was 2.5 mg/kg; in experiment [2] (sc, 10 min, s.c., nose, read-out: lowest active dose (LAD), nose), 2.5 mg/kg; in experiment [2] (sc, 0.5 h, s.c., trachea, read-out: lowest active dose (LAD), trachea), 10 mg/kg; in experiment [2] (sc, 0.5 h, s.c., urinary bladder, read-out: lowest active dose (LAD), urinary bladder), 10 mg/kg.
